{"source": "paper PMC5218480", "about": "(PLoS ONE, 2017)", "test_system": "MV-4-11 cells", "assay": "Gene expression microarray analysis (Affymetrix PrimeView) and GSEA", "type": "cell-based, human", "set-up": "RFU PODN (11730768_x_at) / Fold change /veh PODN (11730768_x_at) / RFU LINC00158 (11744669_a_at) / Fold change /veh LINC00158 (11744669_a_at) / RFU DUSP10 (11751237_a_at) / Fold change /veh DUSP10 (11751237_a_at) / RFU ID3 (11757404_x_at) / Fold change /veh ID3 (11757404_x_at) / RFU PLEKHG5 (11737974_s_at) / Fold change /veh PLEKHG5 (11737974_s_at) / RFU LRRC4B (11730491_at) / Fold change /veh LRRC4B (11730491_at) / RFU GIMAP4 (11747438_a_at) / Fold change /veh GIMAP4 (11747438_a_at) / RFU KRT8 (11758183_x_at) / Fold change /veh KRT8 (11758183_x_at) / RFU CNN1 (11734310_a_at) / Fold change /veh CNN1 (11734310_a_at) / RFU VPS37D (11726825_at) / Fold change /veh VPS37D (11726825_at) / RFU C10orf10 (11716522_x_at) / Fold change /veh C10orf10 (11716522_x_at) / RFU KIR2DL2 /// KIR2DL4 /// KIR2DL5A /// KIR2DL5B /// KIR2DS1 /// KIR2DS2 /// KIR2DS3 /// KIR2DS4 /// KIR3DL3 /// KIR3DL3 /// KIR3DS1 (11738374_at) / Fold change /veh KIR2DL2 /// KIR2DL4 /// KIR2DL5A /// KIR2DL5B /// KIR2DS1 /// KIR2DS2 /// KIR2DS3 /// KIR2DS4 /// KIR3DL3 /// KIR3DL3 /// KIR3DS1 (11738374_at) / RFU C1QL1 (11718748_at) / Fold change /veh C1QL1 (11718748_at) / RFU TMPRSS4 (11747572_a_at) / Fold change /veh TMPRSS4 (11747572_a_at) / RFU HAMP (11756126_x_at) / Fold change /veh HAMP (11756126_x_at) / RFU RNFT2 (11725882_a_at) / Fold change /veh RNFT2 (11725882_a_at) / RFU NR4A2 (11747474_a_at) / Fold change /veh NR4A2 (11747474_a_at) / RFU ABCC12 (11746883_a_at) / Fold change /veh ABCC12 (11746883_a_at) / RFU TMEM136 (11760407_x_at) / Fold change /veh TMEM136 (11760407_x_at) / RFU CLDN22 /// WWC2 (11732394_at) / Fold change /veh CLDN22 /// WWC2 (11732394_at) / RFU HLA-DPB1 (11760878_x_at) / Fold change /veh HLA-DPB1 (11760878_x_at) / RFU SPINT1 (11716480_a_at) / Fold change /veh SPINT1 (11716480_a_at) / RFU GAP43 (11754022_s_at) / Fold change /veh GAP43 (11754022_s_at) / RFU A4GNT (11735810_at) / Fold change /veh A4GNT (11735810_at) / RFU PRB3 (11715151_x_at) / Fold change /veh PRB3 (11715151_x_at) / RFU TUBB4B (11761932_at) / Fold change /veh TUBB4B (11761932_at) / RFU CAPN14 (11732068_a_at) / Fold change /veh CAPN14 (11732068_a_at) / RFU TMCC2 (11721928_a_at) / Fold change /veh TMCC2 (11721928_a_at) / RFU IRGQ (11745062_a_at) / Fold change /veh IRGQ (11745062_a_at) / RFU FAM174B (11720279_a_at) / Fold change /veh FAM174B (11720279_a_at) / RFU TMPRSS4 (11748680_a_at) / Fold change /veh TMPRSS4 (11748680_a_at) / RFU FAM212B (11763350_a_at) / Fold change /veh FAM212B (11763350_a_at) / RFU PLEKHG5 (11743358_a_at) / Fold change /veh PLEKHG5 (11743358_a_at) / RFU ZSCAN30 (11745921_a_at) / Fold change /veh ZSCAN30 (11745921_a_at) / RFU CMKLR1 (11741424_a_at) / Fold change /veh CMKLR1 (11741424_a_at) / RFU LOC101060620 /// MAPK8IP1 (11723275_at) / Fold change /veh LOC101060620 /// MAPK8IP1 (11723275_at) / RFU SPTSSB (11747773_x_at) / Fold change /veh SPTSSB (11747773_x_at) / RFU PRSS12 (11739890_at) / Fold change /veh PRSS12 (11739890_at) / RFU BIN1 (11741810_x_at) / Fold change /veh BIN1 (11741810_x_at) / RFU WNT11 (11732464_a_at) / Fold change /veh WNT11 (11732464_a_at) / RFU C10orf10 (11716521_a_at) / Fold change /veh C10orf10 (11716521_a_at) / RFU C5orf56 (11738089_at) / Fold change /veh C5orf56 (11738089_at) / RFU CYB561 (11721691_x_at) / Fold change /veh CYB561 (11721691_x_at) / RFU ANKRD19P (11752326_a_at) / Fold change /veh ANKRD19P (11752326_a_at) / RFU OR2T12 /// OR2T33 /// OR2T8 (11738714_s_at) / Fold change /veh OR2T12 /// OR2T33 /// OR2T8 (11738714_s_at) / RFU VCAN (11748164_a_at) / Fold change /veh VCAN (11748164_a_at) / RFU JSRP1 (11732532_at) / Fold change /veh JSRP1 (11732532_at) / RFU KRTAP10-11 (11738290_x_at) / Fold change /veh KRTAP10-11 (11738290_x_at) / RFU MYO3A (11730013_a_at) / Fold change /veh MYO3A (11730013_a_at) / RFU EBF3 (11725865_a_at) / Fold change /veh EBF3 (11725865_a_at) / RFU CAMK2N1 (11719241_x_at) / Fold change /veh CAMK2N1 (11719241_x_at) / RFU C5orf56 (11738088_a_at) / Fold change /veh C5orf56 (11738088_a_at) / RFU OLFML3 (11715873_a_at) / Fold change /veh OLFML3 (11715873_a_at) / RFU LOC100653217 /// NTM (11731650_a_at) / Fold change /veh LOC100653217 /// NTM (11731650_a_at) / RFU MAPK11 (11762145_a_at) / Fold change /veh MAPK11 (11762145_a_at) / RFU FIZ1 (11724087_x_at) / Fold change /veh FIZ1 (11724087_x_at) / RFU OASL (11726364_x_at) / Fold change /veh OASL (11726364_x_at) / RFU SOX15 (11748057_x_at) / Fold change /veh SOX15 (11748057_x_at) / RFU CD79A (11719716_a_at) / Fold change /veh CD79A (11719716_a_at) / RFU HIST1H1D (11736915_at) / Fold change /veh HIST1H1D (11736915_at) / RFU CASKIN2 (11723855_a_at) / Fold change /veh CASKIN2 (11723855_a_at) / RFU LOC730098 (11760151_x_at) / Fold change /veh LOC730098 (11760151_x_at) / RFU OR4N2 (11742367_at) / Fold change /veh OR4N2 (11742367_at) / RFU PRRT2 (11749266_a_at) / Fold change /veh PRRT2 (11749266_a_at) / RFU SNX32 (11753110_a_at) / Fold change /veh SNX32 (11753110_a_at) / RFU CDHR5 (11726645_a_at) / Fold change /veh CDHR5 (11726645_a_at) / RFU RCAN1 (11760418_a_at) / Fold change /veh RCAN1 (11760418_a_at) / RFU FAM167A (11723789_a_at) / Fold change /veh FAM167A (11723789_a_at) / RFU FAM26E (11764081_at) / Fold change /veh FAM26E (11764081_at) / RFU ISYNA1 (11749810_s_at) / Fold change /veh ISYNA1 (11749810_s_at) / RFU ACY1 (11761880_at) / Fold change /veh ACY1 (11761880_at) / RFU 11764098_at / Fold change /veh 11764098_at / RFU SAMD14 (11745864_x_at) / Fold change /veh SAMD14 (11745864_x_at) / RFU NPB (11741838_a_at) / Fold change /veh NPB (11741838_a_at) / RFU TMPRSS6 (11731388_a_at) / Fold change /veh TMPRSS6 (11731388_a_at) / RFU KRTAP10-2 (11738614_at) / Fold change /veh KRTAP10-2 (11738614_at) / RFU ARHGAP8 /// PRR5-ARHGAP8 (11727945_x_at) / Fold change /veh ARHGAP8 /// PRR5-ARHGAP8 (11727945_x_at) / RFU KRTAP5-7 /// NADSYN1 (11734609_at) / Fold change /veh KRTAP5-7 /// NADSYN1 (11734609_at) / RFU RASL12 (11751679_a_at) / Fold change /veh RASL12 (11751679_a_at) / RFU CDKN2B (11736163_a_at) / Fold change /veh CDKN2B (11736163_a_at) / RFU PRF1 (11729649_at) / Fold change /veh PRF1 (11729649_at) / RFU, ZNF638 /// ZNF638-IT1 / Fold change vs veh, ZNF638 /// ZNF638-IT1 / RFU, PANK3 / Fold change vs veh, PANK3 / RFU, SH3YL1 / Fold change vs veh, SH3YL1 / RFU, ZEB2 / Fold change vs veh, ZEB2 / RFU, NRIP1 / Fold change vs veh, NRIP1 / RFU, PTTG1IP / Fold change vs veh, PTTG1IP / RFU, CAPN2 / Fold change vs veh, CAPN2 / RFU, MED14 / Fold change vs veh, MED14 / RFU, SNORA58 / Fold change vs veh, SNORA58 / RFU, C1orf63 / Fold change vs veh, C1orf63 / RFU, LRRFIP1 / Fold change vs veh, LRRFIP1 / RFU, NDUFAF7 / Fold change vs veh, NDUFAF7 / RFU, SLC12A2 / Fold change vs veh, SLC12A2 / RFU, IBTK / Fold change vs veh, IBTK / RFU, ESF1 / Fold change vs veh, ESF1 / Fold change vs veh, TMEM50B / RFU, TAOK1 / Fold change vs veh, TAOK1 / RFU, ACBD3 / Fold change vs veh, ACBD3 / RFU, TMA16 / Fold change vs veh, TMA16 / RFU, RWDD3 / Fold change vs veh, RWDD3 / RFU, BCAT1 / Fold change vs veh, BCAT1 / RFU, EDEM3 / Fold change vs veh, EDEM3 / RFU, TMEM33 / Fold change vs veh, TMEM33 / RFU, WDR75 / Fold change vs veh, WDR75 / RFU, AHCTF1 / Fold change vs veh, AHCTF1 / RFU, TFRC / Fold change vs veh, TFRC / RFU, ZDHHC17 / Fold change vs veh, ZDHHC17 / RFU, NOM1 / Fold change vs veh, NOM1 / RFU, ARL8B / Fold change vs veh, ARL8B / RFU, ZBTB11 / Fold change vs veh, ZBTB11 / RFU, TAMM41 / Fold change vs veh, TAMM41 / RFU, KIAA1704 /// LOC100996395 / Fold change vs veh, KIAA1704 /// LOC100996395 / RFU, ING1 / Fold change vs veh, ING1 / RFU, TRMT61B / Fold change vs veh, TRMT61B / RFU, FUBP3 / Fold change vs veh, FUBP3 / RFU, TP53 / Fold change vs veh, TP53 / RFU, TNKS2 / Fold change vs veh, TNKS2 / RFU, ZFP14 / Fold change vs veh, ZFP14 / RFU, ACTR2 / Fold change vs veh, ACTR2 / RFU, PPP3R1 / Fold change vs veh, PPP3R1 / RFU, PIK3R1 / Fold change vs veh, PIK3R1 / RFU, HNRNPA1 / Fold change vs veh, HNRNPA1 / RFU, RNF170 / Fold change vs veh, RNF170 / RFU, ZNF28 / Fold change vs veh, ZNF28 / RFU, RNGTT / Fold change vs veh, RNGTT / RFU, OGT / Fold change vs veh, OGT / RFU, BRD1 / Fold change vs veh, BRD1 / RFU, MARS / Fold change vs veh, MARS / RFU, ZNF655 / Fold change vs veh, ZNF655 / RFU, FAHD1 / Fold change vs veh, FAHD1 / RFU, BDP1 / Fold change vs veh, BDP1 / RFU, LRRCC1 / Fold change vs veh, LRRCC1 / RFU, ARID1A / Fold change vs veh, ARID1A / RFU, ZNF146 / Fold change vs veh, ZNF146 / RFU, ZNF330 / Fold change vs veh, ZNF330 / RFU, GPN3 / Fold change vs veh, GPN3 / RFU, C9orf123 / Fold change vs veh, C9orf123 / RFU, N4BP2L2 / Fold change vs veh, N4BP2L2 / RFU, ARFIP1 / Fold change vs veh, ARFIP1 / RFU, FAM179B / Fold change vs veh, FAM179B / RFU, BCL10 / Fold change vs veh, BCL10 / RFU, UHRF1BP1L / Fold change vs veh, UHRF1BP1L / RFU, BET1 / Fold change vs veh, BET1 / RFU, CNOT2 / Fold change vs veh, CNOT2 / RFU, ZNF268 / Fold change vs veh, ZNF268 / Fold change vs veh, ZNF507 / RFU, DGCR2 / Fold change vs veh, DGCR2 / RFU, WDSUB1 / Fold change vs veh, WDSUB1 / Fold change vs veh, HSP90B1 /// MIR3652 / RFU, ADSS / Fold change vs veh, ADSS / RFU, GK / Fold change vs veh, GK / RFU, ZNF148 / Fold change vs veh, ZNF148 / RFU, TAF9 / Fold change vs veh, TAF9 / RFU, SLC1A5 / Fold change vs veh, SLC1A5 / RFU, SLMO2 / Fold change vs veh, SLMO2 / RFU, ABCC4 / Fold change vs veh, ABCC4 / RFU, LOC101060439 /// RAP1B / Fold change vs veh, LOC101060439 /// RAP1B / RFU, RFX7 / Fold change vs veh, RFX7 / RFU, GTPBP10 / Fold change vs veh, GTPBP10 / RFU, CNEP1R1 / Fold change vs veh, CNEP1R1 / RFU, BIVM-ERCC5 /// ERCC5 / Fold change vs veh, BIVM-ERCC5 /// ERCC5 / RFU, ILF3 / Fold change vs veh, ILF3 / RFU 11762660_at / Fold change /veh 11762660_at / RFU VCAN (11757783_s_at) / Fold change /veh VCAN (11757783_s_at) / RFU DDX43 (11728927_at) / Fold change /veh DDX43 (11728927_at) / RFU KRT8 (11758188_x_at) / Fold change /veh KRT8 (11758188_x_at) / RFU NKD1 (11759106_at) / Fold change /veh NKD1 (11759106_at) / RFU SRD5A1 (11742802_a_at) / Fold change /veh SRD5A1 (11742802_a_at) / RFU TPSAB1 /// TPSB2 (11721975_s_at) / Fold change /veh TPSAB1 /// TPSB2 (11721975_s_at) / RFU GSTM3 (11746129_a_at) / Fold change /veh GSTM3 (11746129_a_at) / RFU IL23R (11737362_x_at) / Fold change /veh IL23R (11737362_x_at) / RFU TMEM51 (11727254_a_at) / Fold change /veh TMEM51 (11727254_a_at) / RFU PIWIL2 (11732686_x_at) / Fold change /veh PIWIL2 (11732686_x_at) / RFU ORM1 (11744905_x_at) / Fold change /veh ORM1 (11744905_x_at) / RFU CCDC152 (11743942_at) / Fold change /veh CCDC152 (11743942_at) / RFU ECM1 (11717891_a_at) / Fold change /veh ECM1 (11717891_a_at) / RFU IL23R (11748794_a_at) / Fold change /veh IL23R (11748794_a_at) / RFU TNFAIP8L3 (11732012_x_at) / Fold change /veh TNFAIP8L3 (11732012_x_at) / RFU MBOAT4 (11741988_at) / Fold change /veh MBOAT4 (11741988_at) / RFU 11764193_at / Fold change /veh 11764193_at / RFU TMEM53 (11763286_at) / Fold change /veh TMEM53 (11763286_at) / RFU MAGEB2 (11727129_at) / Fold change /veh MAGEB2 (11727129_at) / RFU TMEM200A (11744735_a_at) / Fold change /veh TMEM200A (11744735_a_at) / RFU CCDC152 (11751479_a_at) / Fold change /veh CCDC152 (11751479_a_at) / RFU FAM211A (11726209_a_at) / Fold change /veh FAM211A (11726209_a_at) / RFU RGS16 (11746705_a_at) / Fold change /veh RGS16 (11746705_a_at) / RFU VCAN (11755009_s_at) / Fold change /veh VCAN (11755009_s_at) / RFU RHOB (11743442_s_at) / Fold change /veh RHOB (11743442_s_at) / RFU RGS16 (11720943_a_at) / Fold change /veh RGS16 (11720943_a_at) / RFU RGS16 (11720944_at) / Fold change /veh RGS16 (11720944_at) / RFU, VPS4B / Fold change vs veh, VPS4B / RFU, CREB1 / Fold change vs veh, CREB1 / RFU, DNAJC13 / Fold change vs veh, DNAJC13 / RFU, GNAQ / Fold change vs veh, GNAQ / RFU, CDK5R1 / Fold change vs veh, CDK5R1 / RFU, ZRANB3 / Fold change vs veh, ZRANB3 / RFU, CUL4A / Fold change vs veh, CUL4A / RFU, CCNY / Fold change vs veh, CCNY / RFU, UFL1 / Fold change vs veh, UFL1 / RFU, COG3 / Fold change vs veh, COG3 / RFU, DIAPH2 / Fold change vs veh, DIAPH2 / RFU, SKA2 / Fold change vs veh, SKA2 / RFU, AFF3 / Fold change vs veh, AFF3 / RFU, LMF1 / Fold change vs veh, LMF1 / RFU, IPO11 / Fold change vs veh, IPO11 / RFU, DFFB / Fold change vs veh, DFFB / RFU, FOXP1 / Fold change vs veh, FOXP1 / RFU, CARD8 / Fold change vs veh, CARD8 / RFU, STRN3 / Fold change vs veh, STRN3 / RFU, ADK / Fold change vs veh, ADK / RFU, RASSF2 / Fold change vs veh, RASSF2 / RFU, WIPF1 / Fold change vs veh, WIPF1 / RFU, LARP1B / Fold change vs veh, LARP1B / RFU, RASA1 / Fold change vs veh, RASA1 / RFU, RB1 / Fold change vs veh, RB1 / RFU, PPFIA1 / Fold change vs veh, PPFIA1 / RFU, MAT2A / Fold change vs veh, MAT2A / RFU, CCT5 / Fold change vs veh, CCT5 / RFU, WDR92 / Fold change vs veh, WDR92 / RFU, CUX1 / Fold change vs veh, CUX1 / RFU, TTC7A / Fold change vs veh, TTC7A / RFU, TMEM135 / Fold change vs veh, TMEM135 / RFU, DEPTOR / Fold change vs veh, DEPTOR / RFU, CPM / Fold change vs veh, CPM / RFU, DNAJB6 / Fold change vs veh, DNAJB6 / RFU, CACNA2D3 / Fold change vs veh, CACNA2D3 / RFU, DTX4 / Fold change vs veh, DTX4 / RFU, TFCP2 / Fold change vs veh, TFCP2 / RFU, GMCL1 /// GMCL1P1 / Fold change vs veh, GMCL1 /// GMCL1P1 / RFU, AEBP2 / Fold change vs veh, AEBP2 / RFU, SNHG1 /// SNORD22 /// SNORD25 /// SNORD26 /// SNORD27 /// SNORD28 /// SNORD29 /// SNORD31 / Fold change vs veh, SNHG1 /// SNORD22 /// SNORD25 /// SNORD26 /// SNORD27 /// SNORD28 /// SNORD29 /// SNORD31 / Fold change (Aza/veh), C12orf56 (ProbeSet 11735607_a_at) / Fold change (ACY-1035/veh), C12orf56 (ProbeSet 11735607_a_at) / Fold change (Aza/veh), FGFR1OP (ProbeSet 11751329_s_at) / Fold change (ACY-1035/veh), FGFR1OP (ProbeSet 11751329_s_at) / Fold change (Aza/veh), VPS36 (ProbeSet 11739960_a_at) / Fold change (ACY-1035/veh), VPS36 (ProbeSet 11739960_a_at) / RFU SYPL1 (11715823_x_at) / Fold change /veh SYPL1 (11715823_x_at) / RFU IGFBP7 (11715501_s_at) / Fold change /veh IGFBP7 (11715501_s_at) / RFU REEP3 (11722064_at) / Fold change /veh REEP3 (11722064_at) / RFU IGLL1 (11728026_x_at) / Fold change /veh IGLL1 (11728026_x_at): dose or concentration left out as unconfirmed", "details": "ProbeSet 11716891_at; LIST B", "data": [{"smiles": "Nc1ncn([C@@H]2O[C@H](CO)[C@@H](O)[C@H]2O)c(=O)n1", "note": "[azacitidine]", "values": [{"measurement": "RFU, C9orf123", "value": 42.83, "unit": "RFU"}]}]}
